Structures can show the parent of a compound that is named as a salt. Where two headings read alike, the source gives them in different places.
Biological target: T1, human LTA4 hydrolase (Homo sapiens, UniProt P09960)
T1 construct: A human LTA4 hydrolase full-length cDNA clone (NM 000895) was purchased; His tag (6xHis of vector pDEST17); made in house; host or cells: Escherichia coli BL21-AI
T1 sequence (P09960 1-611): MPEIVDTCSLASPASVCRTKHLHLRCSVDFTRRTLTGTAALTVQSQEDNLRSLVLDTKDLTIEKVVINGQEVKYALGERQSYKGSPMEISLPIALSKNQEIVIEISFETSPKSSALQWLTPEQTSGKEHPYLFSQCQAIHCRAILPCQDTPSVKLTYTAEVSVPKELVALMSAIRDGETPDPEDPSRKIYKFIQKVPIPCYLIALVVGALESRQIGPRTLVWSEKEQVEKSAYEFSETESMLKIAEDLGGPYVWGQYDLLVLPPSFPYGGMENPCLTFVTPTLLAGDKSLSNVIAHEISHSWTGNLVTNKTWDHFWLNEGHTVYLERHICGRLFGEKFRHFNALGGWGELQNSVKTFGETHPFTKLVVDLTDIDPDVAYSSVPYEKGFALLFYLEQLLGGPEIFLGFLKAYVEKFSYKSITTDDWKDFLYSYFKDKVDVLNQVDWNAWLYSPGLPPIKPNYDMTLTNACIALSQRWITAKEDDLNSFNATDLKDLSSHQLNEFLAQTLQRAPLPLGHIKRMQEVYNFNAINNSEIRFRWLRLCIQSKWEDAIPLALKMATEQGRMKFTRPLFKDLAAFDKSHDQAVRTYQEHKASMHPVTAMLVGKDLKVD
Test: In vitro assay testing inhibitory activity against purified recombinant human LTA4 hydrolase (LTB4 formed, LC-MS/MS);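 also: 200 nM enzyme preincubated 10 min at room temperature with serial inhibitor dilutions in pH 8.0 Tris buffer with BSA and 10% DMSO, then 2 µM LTA4 added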
Type: biochemical

[1] = recombinant human LTA4 hydrolase 200 nM, LTA4 2 μM, read-out: AvgIC50

| SMILES | IC50 [1] [µM] | IC50 [µM] |
| --- | --- | --- |
| c1ccc(Cc2ccc(OC[C@H]3CCCN3Cc3ccncc3)cc2)cc1 [Example 6, 4-[(R)-2-(4-benzyl-phenoxymethyl)-pyrrolidin-1-ylmethyl]-pyridine] | < 5 | – |
| COC(=O)CCN1CCC[C@@H]1COc1ccc(Cc2ccccc2)cc1 [Example 7, 3-[(R)-2-(4-benzyl-phenoxymethyl)-pyrrolidin-1-yl]-propionic acid methyl ester] | < 5 | – |
| FC(F)(F)Oc1ccc(Oc2ccc(OC[C@H]3CCCN3)cc2)cc1 [Example 11, (R)-2-[4-(4-Trifluoromethoxy-phenoxy)-phenoxymethyl]-pyrrolidine hydrochloride] | < 5 | – |
| c1ccc(-c2ccc(Oc3ccc(OC[C@H]4CCCN4)cc3)cc2)cc1 [Example 12, (R)-2-[4-(Biphenyl-4-yloxy)-phenoxymethyl]-pyrrolidine hydrochloride] | < 5 | – |
| Cc1ccc(Oc2ccc(OC[C@H]3CCCN3)cc2)cc1 [Example 14, (R)-2-(4-p-Tolyloxy-phenoxymethyl)-pyrrolidine hydrochloride] | < 5 | – |
| N#Cc1ccc(Oc2ccc(OC[C@H]3CCCN3)cc2)cc1 [Example 15, 4-[4-((R)-1-Pyrrolidin-2-ylmethoxy)-phenoxy]-benzonitrile hydrochloride] | < 5 | – |
| CC(=O)c1ccc(Oc2ccc(OC[C@H]3CCCN3)cc2)cc1 [Example 17, 1-{4-[4-((R)-1-Pyrrolidin-2-ylmethoxy)-phenoxy]-phenyl}-ethanone hydrochloride] | < 5 | – |
| O=C(O)CN1CCC[C@@H]1COc1ccc(Oc2ccc(Cl)cc2)cc1 [Example 18, {(R)-2-[4-(4-Chloro-phenoxy)-phenoxymethyl]-pyrrolidin-1-yl}-acetic acid hydrochloride] | < 5 | – |
| FC(F)(F)c1ccc(Oc2ccc(OC[C@@H]3CCCN3)cc2)cc1 [Example 24, (S)-2-[4-(4-trifluoromethyl-phenoxy)-phenoxymethyl]-pyrrolidine] | < 5 | – |
| O=C(O)CCCN1CCC[C@H]1COc1ccc(Oc2ccc(C(F)(F)F)cc2)cc1 [Example 25] | < 5 | – |
| O=C(O)CCN1CCC[C@H]1COc1ccc(Oc2ccc(C(F)(F)F)cc2)cc1 [Example 26, (S)-2-[4-(4-trifluoromethyl-phenoxy)-phenoxymethyl]-pyrrolidine-1-yl}propionic acid sodium salt] | < 5 | – |
| O=C(O)CN1CCC[C@@H]1COc1ccc(Oc2ccc(C(F)(F)F)cc2)cc1 [Example 28, (R)-2-[4-(4-trifluoromethyl-phenoxy)-phenoxymethyl]-pyrrolidine-1-yl)acetic acid sodium salt] | < 5 | – |
| O=C(O)CCN1CCC[C@@H]1COc1ccc(Oc2ccc(C(F)(F)F)cc2)cc1 [Example 29, (R)-2-[4-(4-trifluoromethyl-phenoxy)-phenoxymethyl]-pyrrolidine-1-yl}propionic acid sodium salt] | < 5 | – |
| Cc1noc(CCCN2CCC[C@@H]2COc2ccc(Cc3ccccc3)cc2)n1 [Example 31] | < 5 | – |
| Cc1noc(CCCN2CCC[C@H]2COc2ccc(Cc3ccccc3)cc2)n1 [Example 32] | < 5 | – |
| OCCCCN1CCC[C@H]1COc1ccc(Cc2ccccc2)cc1 [Example 33, 4-[(S)-2-(4-Benzyl-phenoxymethyl)-pyrrolidin-1-yl]-butan-1-ol] | < 5 | – |
| c1ccc(Nc2ccc(OC[C@H]3CCCN3)cc2)cc1 [Example 44, Phenyl-[4-((R)-1-pyrrolidin-2-ylmethoxy)-phenyl]-amine] | < 5 | – |
| c1ccc(CNc2ccc(OC[C@H]3CCCN3)cc2)cc1 [Example 48, Benzyl-[4-((R)-1-pyrrolidin-2-ylmethoxy)-phenyl]-amine] | – | < 5 |

Continued, in another order:

| IC50 [1] [µM] | SMILES | IC50 [µM] |
| --- | --- | --- |
| < 5 | c1ccc(Cc2ccc(OCCC3CCCCN3)cc2)cc1 (racemic) [Example 72, (+/−)-2-[(4-Benzylphenoxy)ethyl]-piperidine hydrochloride] | – |
| < 5 | Clc1ccc(Cc2ccc(OCC3CCCCN3)cc2)cc1 (stereo in doubt) [Example 165, (S)-2-[4-(4-Chlorobenzyl)-phenoxymethyl]-piperidine hydrochloride] | – |
| < 5 | Clc1ccc(Cc2ccc(OCC3CCCCN3)cc2)cc1 (stereo in doubt) [Example 166, (R)-2-[4-(4-Chlorobenzyl)-phenoxymethyl]-piperidine hydrochloride] | – |
| 5 to 20 | O=C(O)CCN1CCC[C@H]1COc1ccc(Cc2ccccc2)cc1 [Example 34, 3-[(S)-2-(4-Benzyl-phenoxymethyl)-pyrrolidin-1-yl]-propionic acid HCl salt] | – |
| < 5 | O=C(O)CN1CCC[C@H]1COc1ccc(Cc2ccccc2)cc1 [Example 36, [(S)-2-(4-Benzyl-phenoxymethyl)-pyrrolidin-1-yl]-acetic acid TFA salt] | – |
| < 5 | CC(=O)NCCCN1CCC[C@H]1COc1ccc(Oc2ccc(Cl)cc2)cc1 [Example 38, N-(3-{(S)-2-[4-(4-Chloro-phenoxy)-phenoxymethyl]-pyrrolidin-1-yl}-propyl)-acetamide HCl] | – |
| < 5 | c1ccc(Cc2ccc(NC[C@H]3CCCN3)cc2)cc1 [Example 41, (4-Benzyl-phenyl)-(R)-1-pyrrolidin-2-ylmethyl-anine] | – |
| < 5 | c1ccc(Oc2ccc(SC[C@H]3CCCN3)cc2)cc1 [Example 43, (R)-2-(4-Phenoxy-phenylsulfanylmethyl)-pyrrolidine] | – |
| < 5 | c1ccc(Oc2ccc(OC[C@H]3CCCN3)cc2)cc1 [Example 45, (R)-2-(4-Phenoxy-phenoxymethyl)-pyrrolidine] | – |
| 5 to 20 | O=C(c1ccccc1)c1ccc(OC[C@H]2CCCN2)cc1 [Example 46, Phenyl-[4-((R)-1-pyrrolidin-2-ylmethoxy)-phenyl]-methanone] | – |
| 5 to 20 | O=C(Cc1ccccc1)c1ccc(OC[C@H]2CCCN2)cc1 [Example 47, 2-Phenyl-1-[4-((R)-1-pyrrolidin-2-ylmethoxy)-phenyl]-ethanone] | – |
| < 5 | COC(=O)CCN1CCCC[C@H]1COc1ccc(Oc2ccc(Cl)cc2)cc1 [Example 58, 3-{(S)-2-[4-(4-Chloro-phenoxy)-phenoxymethyl]-piperidin-1-yl}-propionic acid methyl ester] | – |
| < 5 | O=C(O)CCN1CCCC[C@H]1COc1ccc(Oc2ccc(Cl)cc2)cc1 [Example 59, 3-{(S)-2-[4-(4-Chloro-phenoxy)-phenoxymethyl]-piperidin-1-yl}-propionic acid hydrochloride] | – |
| < 5 | O=C(O)CN1CCCC[C@H]1COc1ccc(Oc2ccc(Cl)cc2)cc1 [Example 62, {(S)-2-[4-(4-Chloro-phenoxy)-phenoxymethyl]-piperidin-1-yl}-acetic acid hydrochloride] | – |
| < 5 | Clc1ccc(Oc2ccc(OC[C@@H]3CCCCN3Cc3ncno3)cc2)cc1 [Example 63, (S)-2-[4-(4-Chloro-phenoxy)-phenoxymethyl]-1-[1,2,4]oxadiazol-5-ylmethyl-piperidine hydrochloride] | – |
| < 5 | O=C(O)CCCN1CCC[C@@H]1COc1ccc(Cc2ccc(Cl)cc2)cc1 [Example 65, 4-{(R)-2-[4-(4-Chloro-benzyl)-phenoxymethyl]-pyrrolidin-1-yl}-butyric acid] | – |
| < 5 | c1ccc(Cc2ccc(OCC[C@@H]3CCCCN3)cc2)cc1 [Example 71, (S)-2-[(4-Benzylphenoxy)ethyl]-piperidine hydrochloride] | – |
| < 5 | c1ccc(CN2CCNC(COc3ccc(Oc4ccccc4)cc3)C2)cc1 (stereo not drawn) [Example 75, dihydrochloride] | – |
